The text below walks through data of patent US12534477B2, “Compound having KHK inhibitory effect” (HANGZHOU ZHONGMEIHUADONG PHARMACEUTICAL CO., LTD., priority 2019, dated 2026).

The subject of series [1] is fructose metabolism in mice. The experiment in a line: Acute fructose feeding experiment in mice. In kind it is in vivo. Particulars: compound 10 mpk, oral fructose 1 g/kg.
Series [2] is described as follows: Pharmacokinetic evaluation in SD rats. Particulars: rat, plasma. In kind it is in vivo. As for the experimental part: In vivo pharmacokinetics of compounds in SD rats were tested.
Pharmacokinetic profiles in rodents following intravenous and oral administration of the compounds were tested by standard protocols. In the experiment, candidate compounds were formulated as clear solutions or homogeneous suspensions, and were administered to rats by single intravenous injection (IV, 1 mpk) and oral administration (PO, 3 mpk). The vehicle for intravenous injection was a certain proportion of PEG400 in water, and the vehicle for oral administration was a certain proportion of methylcellulose and Tween 80 in water. Whole blood was collected, and plasma was prepared. Drug concentration was analyzed by LC-MS/MS, and pharmacokinetic parameters were calculated by Phoenix WinNonlin software.

Regarding `C[C@H]1CCN1c1nc(N2C[C@@H]3[C@@H](CC(=O)O)[C@@H]3C2)c2ccsc2n1` [WX004], in series [1], the “AUC of integral fructose concentration for dosed group” value worked out at 2194 nM·h and the “AUC of integral fructose concentration of dosed group/AUC of Integral fructose concentration of control group” value is 5.0. In addition, in series [2] (1 mg/kg, IV 1 mpk, read-out: Clearance rate), the clearance turned out to be 1.21 mL/min/kg. For the same compound, in series [2] (3 mg/kg, IV 1 mpk, PO 3 mpk, read-out: Bioavailability F), the bioavailability came to 80%. Besides, in series [2] (3 mg/kg, PO 3 mpk, read-out: Integral concentration AUC for PO), the AUC was determined as 64.5 µM·h. The half-life in series [2] (IV 1 mpk and PO 3 mpk study, read-out: Half-life T1/2 (converted)) is 2.96 h.
